Measurements taken from patent US6391882B1, “4,5,6 and 7-indole and indoline derivatitives, their preparation and use” (H. Lundbeck A/S, priority 1998, dated 2002).
Read-outs that look alike come from different tables or passages of the source.

Legend:
[1] = biological target: T1, Serotonin reuptake (whole rat brain synaptosomes) (Rattus norvegicus, UniProt P31652); assay: Inhibition of 3H-5-HT uptake into rat brain synaptosomes; assay type: biochemical
T1 construct: from tissue; host or cells: whole rat brain synaptosomes
T1 sequence (P31652 whole entry): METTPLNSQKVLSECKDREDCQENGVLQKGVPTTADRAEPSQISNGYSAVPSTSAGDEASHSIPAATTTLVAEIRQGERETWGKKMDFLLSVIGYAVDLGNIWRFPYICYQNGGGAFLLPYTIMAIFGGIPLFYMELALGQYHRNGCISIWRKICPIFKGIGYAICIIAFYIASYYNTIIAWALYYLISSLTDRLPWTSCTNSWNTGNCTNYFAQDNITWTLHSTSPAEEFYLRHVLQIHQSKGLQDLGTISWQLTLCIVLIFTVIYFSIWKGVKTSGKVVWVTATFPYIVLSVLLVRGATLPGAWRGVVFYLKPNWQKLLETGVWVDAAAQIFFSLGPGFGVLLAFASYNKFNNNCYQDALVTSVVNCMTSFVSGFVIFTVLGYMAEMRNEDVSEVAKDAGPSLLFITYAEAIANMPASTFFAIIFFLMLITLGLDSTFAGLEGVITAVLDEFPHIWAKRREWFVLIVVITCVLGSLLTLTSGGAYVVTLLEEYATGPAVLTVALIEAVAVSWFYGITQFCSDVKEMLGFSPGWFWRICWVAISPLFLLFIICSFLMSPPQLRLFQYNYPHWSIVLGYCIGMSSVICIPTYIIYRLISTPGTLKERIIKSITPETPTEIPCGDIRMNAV
Procedure: Inhibition of ^3H-5-HT Uptake Into Rat Brain Synaptosomes
Using this method the ability of drugs to inhibit the accumulation of ^3H-5-HT into whole rat brain synaptosomes is determined in vitro.

[2] = biological target: T2, cloned human 5-HT1A receptors (Homo sapiens, UniProt P08908); assay: Inhibition of 3H-5-CT binding to human 5-HT1A receptors
T2 construct: expressed in transfected cells; host or cells: HeLa cells (HA7)
T2 sequence (P08908 1-422): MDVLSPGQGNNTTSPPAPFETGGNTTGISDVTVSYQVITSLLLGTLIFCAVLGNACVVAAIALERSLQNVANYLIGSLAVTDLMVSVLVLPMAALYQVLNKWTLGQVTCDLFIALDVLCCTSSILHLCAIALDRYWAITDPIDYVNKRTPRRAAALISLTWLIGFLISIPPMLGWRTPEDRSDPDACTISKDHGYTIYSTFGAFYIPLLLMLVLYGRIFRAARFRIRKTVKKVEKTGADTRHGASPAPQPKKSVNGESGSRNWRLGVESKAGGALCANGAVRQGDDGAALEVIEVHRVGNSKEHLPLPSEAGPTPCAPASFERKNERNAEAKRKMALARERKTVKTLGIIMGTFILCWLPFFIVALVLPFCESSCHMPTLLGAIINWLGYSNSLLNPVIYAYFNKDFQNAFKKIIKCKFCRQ
Procedure: The affinity of the compounds of the invention to 5-HT1A receptors was determined by measuring the inhibition of binding of a radioactive ligand at 5-HT1A receptors as described in the following test:
Inhibition of ^3H-5-CT Binding to Human 5HT1A Receptors
By this method the inhibition by drugs of the binding of the 5-HT1A agonist ^3H-5-carboxamido tryptamine (^3H-5-CT) to cloned human 5-HT1A receptors stably expressed in transfected HeLa cells (HA7) (Fargin, A. et al, J. Biol. Chem., 1989, 264, 14848) is determined in vitro. The assay was performed as a modification of the method described by Harrington, M. A. et al, J. Pharmacol. Exp. Ther., 1994, 268, 1098. Human 5-HT1A receptors (40 μg of cell homogenate) were incubated for 15 minutes at 37° C. in 50 mM Tris buffer at pH 7.7 in the presence of ^3H-5-CT. Non-specific binding was determined by including 10 μM of metergoline. The reaction was terminated by rapid filtration through Unifilter GF/B filters on a Tomtec Cell Harvester. Filters were counted in a Packard Top Counter.

[3] = cloned human 5-HT1A receptors in transfected HeLa cells (HA7), 15 minutes at 37° C., pH 7.7
[4] = 3H-5-HT accumulation into whole rat brain synaptosomes, in vitro, read-out: Inhibition of Serotonin reuptake IC50

| Structure (SMILES) | IC50 [1] | IC50 [2, 3] | IC50 [1, 4] | IC50 [2] |
| --- | --- | --- | --- | --- |
| Clc1ccc2c(CCN3CC=C(c4cccc5[nH]ccc45)CC3)c[nH]c2c1 [Compound 2g, 1-(2-(6-Chloro-1H-indol-3-yl)ethyl)-4-(1H-indol-4-yl)-1,2,3,6-tetrahydropyridine] | 22 nM | 2.8 nM | – | – |
| Clc1ccc2[nH]cc(CCN3CCN(c4ccc5[nH]ccc5c4)CC3)c2c1 [Compound 2u, 1-(2-(5-Chloro-1H-indol-3-yl)ethyl)-4-(1H-indol-5-yl)piperazine] | 20 nM | 310 nM | – | – |
| Clc1ccc2occ(CCN3CCN(c4cccc5[nH]ccc45)CC3)c2c1 [Compound 4t, 1-(2-(5-Chloro-3-benzofuranyl)ethyl)-4-(1H-indol-4-yl)piperazine] | 99 nM | 9.4 nM | – | – |
| Brc1ccc2[nH]cc(CCN3CCN(c4ccc5[nH]ccc5c4)CC3)c2c1 [Compound 2t, 1-(2-(5-Bromo-1H-indol-3-yl)ethyl)-4-(1H-indol-5-yl)piperazine] | 39 nM | 230 nM | – | – |
| Cc1ccc2c(CCN3CCN(c4cccc5[nH]ccc45)CC3)coc2c1 [Compound 4u, 1-(1H-Indol-4-yl)-4-(2-(6-methyl-3-benzofuranyl)ethyl)piperazine] | 93 nM | 7 nM | – | – |
| COC(=O)c1cc(N2CCN(CCc3c[nH]c4ccccc34)CC2)c2cc[nH]c2c1 [Compound 4f, 1-(2-(1H-indol-3-yl)ethyl)-4-(6-methoxycarbonyl-1H-indol-4-yl)piperazine] | 14 nM | 1200 nM | – | – |
| Fc1ccc2occ(CCN3CCN(c4cccc5[nH]ccc45)CC3)c2c1 [Compound 1c, 1-(2-(5-Fluoro-3-benzofuranyl)ethyl)-4-(1H-indol-4-yl)piperazine] | 57 nM | 12 nM | – | – |
| Cc1cccc2occ(CCN3CCN(c4cccc5[nH]ccc45)CC3)c12 [Compound 4r, 1-(1H-Indol-4-yl)-4-(2-(4-methyl-3-benzofuranyl)ethyl)piperazine] | 12 nM | 10 nM | – | – |
| Fc1ccc2occ(CCCN3CCN(c4cccc5[nH]ccc45)CC3)c2c1 [Compound 1h, 1-(3-(5-Fluoro-3-benzofuranyl)-1-propyl)-4-(1H-indol-4-yl)piperazine] | – | 11 nM | 6.8 nM | – |
| Fc1ccc2occ(CN3CCN(c4cccc5[nH]ccc45)CC3)c2c1 [Compound 4l, 1-(5-Fluoro-3-benzofuranylmethyl)-4-(1H-indol-4-4-yl)piperazine] | – | 330 nM | 950 nM | – |
| N#Cc1c[nH]c2cccc(N3CCN(CCc4coc5ccc(F)cc45)CC3)c12 [Compound 4n, 1-(3-Cyano-1H-indol-4-yl)-4-(2-(5-fluoro-3-benzofuranyl)ethyl)piperazine] | – | 5.7 nM | 65 nM | – |
| Clc1cccc2c(CCN3CCN(c4cccc5[nH]ccc45)CC3)coc12 [Compound 4v, 1-(2-(7-Chloro-3-benzofuranyl)ethyl)-4-(1H-indol-4-yl)piperazine] | 4.4 nM | 4.3 nM | – | – |
| COC(=O)c1cc(N2CCN(CCc3c[nH]c4cc(Cl)ccc34)CC2)c2cc[nH]c2c1 [Compound 4g, 1-(2-(6-Chloro-1H-indol-3-yl)ethyl)-4-(6-methoxycarbonyl-1-H-indol-4-yl)piperazine] | 23 nM | 350 nM | – | – |
| Clc1ccc2c(CCN3CCC(c4cccc5[nH]ccc45)CC3)c[nH]c2c1 [Compound 5a] | 19 nM | 14 nM | – | – |
| Brc1cccc2c(CCN3CCN(c4cccc5[nH]ccc45)CC3)c[nH]c12 [Compound 2i, 1-(2-(7-Bromo-1H-indol-3-yl)ethyl)-4-(1H-indol-4-yl)piperazine] | 5.9 nM | 5.4 nM | – | – |
| N#Cc1c[nH]c2cccc(N3CCN(CCc4c[nH]c5cc(Cl)ccc45)CC3)c12 [Compound 4o, 1-(2-(6-Chloro-1H-indol-3-yl)ethyl)-4-(3-cyano-1H-indol-4-yl)piperazine] | 19 nM | 2.9 nM | – | – |
| Fc1ccc2occ(CCCN3CC=C(c4cccc5[nH]ccc45)CC3)c2c1 [Compound 4s, 1-(3-(5-Fluoro-3-benzofuranyl)-1-propyl)-4-(1H-indol-4-yl)-1,2,3,6-tetrahydropyridine] | 24 nM | 16 nM | – | – |
| Clc1ccc2c(CCN3CCN(c4cccc5[nH]ccc45)CC3)c[nH]c2c1 [Compound 2a, 1-(2-(6-Chloro-1H-indol-3-yl)ethyl)-4-(1H-indol-4-yl)piperazine] | 21 nM | 3.4 nM | – | – |

| Structure (SMILES) | IC50 [1] | IC50 [2, 3] | IC50 [1, 4] | IC50 [2] |
| --- | --- | --- | --- | --- |
| Cc1ccc2occ(CCN3CCN(c4cccc5[nH]ccc45)CC3)c2c1 [Compound 4q, 1-(1H-Indol-4-yl)-4-(2-(5-methyl-3-benzofuranyl)ethyl)piperazine] | 34 nM | 21 nM | – | – |
| N#Cc1c[nH]c2cccc(N3CCN(CCc4c[nH]c5cccc(Cl)c45)CC3)c12 [Compound 4x, 1-(2-(4-Chloro-1H-indol-3-yl)ethyl)-4-(3-cyano-1H-indol-4-yl)piperazine] | – | 5.4 nM | – | – |
| OCc1cc(N2CCN(CCc3c[nH]c4ccc(F)cc34)CC2)c2cc[nH]c2c1 [Compound 3a, 1-(2-(5-Fluoro-1H-indol-3-yl)ethyl)-4-(6-hydroxymethyl-1H-indol-4-yl)piperazine] | 17 nM | 910 nM | – | – |
| N#Cc1c[nH]c2cccc(N3CCN(CCc4coc5ccccc45)CC3)c12 [Compound 4p, 1-(2-(3-Benzofuranyl)ethyl)-4-(3-cyano-1H-indol-4-yl)piperazine] | – | 4.3 nM | 22 nM | – |
| N#Cc1c[nH]c2cccc(N3CCN(CCc4c[nH]c5ccccc45)CC3)c12 [Compound 4m, 1-(3-Cyano-1H-indol-4-yl)-4-(2-(1H-indol-3-yl)ethyl)piperazine] | 3 nM | 3.2 nM | – | – |
| c1ccc2c(CCN3CCN(c4cccc5[nH]ccc45)CC3)c[nH]c2c1 [Compound 1e, 1-(2-(1H-indol-3-yl)ethyl)-4-(1H-indol-4-yl)piperazine] | 4.4 nM | 6.9 nM | – | – |
| c1cc(N2CCN(CCc3coc4ccccc34)CC2)c2cc[nH]c2c1 [Compound 1a, 1-(2-(3-Benzofuranyl)ethyl)-4-(1H-indol-4-yl)piperazine] | 31 nM | 10 nM | – | – |
| Cc1oc2c(F)c(F)c(F)c(F)c2c1CCN1CCN(c2cccc3[nH]ccc23)CC1 [Compound 1i, 1-(2-(2-Methyl-4,5,6,7-tetrafluoro-3-benzofuranyl)ethyl)-4-(1H-indol-4-yl)piperaziine] | – | 3.4 nM | – | – |
| Fc1ccc2occ(CCCCN3CCN(c4cccc5[nH]ccc45)CC3)c2c1 [Compound 1d, 1-(4-(5-Fluoro-3-benzofuranyl)-1-butyl)-4-(1H-indol-4-yl)piperazine] | – | 2.5 nM | 31 nM | – |
| Clc1ccc2c(CCN3CCN(c4cccc5[nH]ccc45)CC3)n[nH]c2c1 [Compound 1k, 1-(2-(6-Chloro-3-indazolyl)ethyl)-4-(1H-indol-4-yl)piperazine] | – | – | 150 nM | 22 nM |
| c1ccc2c(CCCCN3CCN(c4cccc5[nH]ccc45)CC3)c[nH]c2c1 [Compound 1g, 1-(4-(1H-indol-3-yl)-1-butyl)-4-(1H-indol-4yl)piperazine] | – | 13 nM | 12 nM | – |
| c1cc(N2CCN(Cc3coc4ccccc34)CC2)c2cc[nH]c2c1 [Compound 1b, 1-(3-Benzofuranylmethyl)-4-(1H-indol-4-yl)piperazine] | – | 210 nM | 290 nM | – |
| Fc1ccc2c(CCCN3CCN(c4cccc5[nH]ccc45)CC3)noc2c1 [Compound 4a, 1-(3-(6-Fluoro-1,2-benzisoxazol-3-yl)-1-propyl)-4-(1H-indol-4-yl)piperazine] | – | 9.8 nM | 360 nM | – |
| Fc1ccc2[nH]cc(CCN3CC=C(c4cccc5[nH]ccc45)CC3)c2c1 [Compound 2h, 1-(2-(5-Fluoro-1H-indol-3-yl)ethyl)-4-(1H-indol-4-yl)-1,2,3,6-tetrahydropyridine] | 2.5 nM | 11 nM | – | – |
| c1cc(N2CCN(CCc3n[nH]c4ccccc34)CC2)c2cc[nH]c2c1 [Compound 1j, 1-(2-(3-Indazolyl)ethyl)-4-(1H-indol-4-yl)piperazine] | – | – | 360 nM | 22 nM |
| c1ccc2c(CCCN3CCN(c4cccc5[nH]ccc45)CC3)c[nH]c2c1 [Compound 1f, 1-(3-(1H-indol-3-yl)-1-propyl)-4-(1H-indol-4-yl)piperazine] | – | 9.8 nM | 8.2 nM | – |
| N#Cc1cccc2c(CCN3CCN(c4cccc5[nH]ccc45)CC3)c[nH]c12 [Compound 1l, 1-(2-(7-Cyano-1H-indol-3-yl)ethyl)-4-(1H-indol-4-yl)piperazine] | – | 2.5 nM | – | – |
